assay: not given; settings: human, cytosol

| t1/2 [min] (Left) | SMILES |
| --- | --- |
| 17.3 | O=C(c1ccc(-c2ncc3cnc(-c4cccc(F)c4)cn23)cc1)N1CCc2cccnc21 |
| > 120 | O=c1cc(N2CCOCC2)oc2c(-c3cccc(F)c3)nccc12 [O=c1cc(N2CCOCC2)oc2c(-c3cccc(F)c3)nccc12] |

assay: not given; design: method as in PMID 20421447; settings: development discontinued in 2008; cited from earlier work

| SMILES | toxicity reported in development |
| --- | --- |
| Cn1cc(-c2ccc3nnc(Sc4ccc5ncccc5c4)n3n2)cn1 [SGX523] | dose-limiting renal toxicity |

assay: not given; design: method as in PMID 21385103; settings: clinical trials terminated; cited from earlier work

| SMILES | levels of parent compound in human plasma |
| --- | --- |
| CC(C)n1nc(-c2cnc(N)nc2-c2ccccc2)ccc1=O [FK3453] | abnormally low levels |

assay: Metabolic stability assay (substrate depletion) in human liver cytosol fractions; settings: both, human, cytosol, pH 7.4, t1/2 (mean ± SD) (Human cytosol), control compounds, 17 plates, 1 μM, 2 mg/mL cytosol, pH 7.4, 37 °C
Protocol: (§1) Our assay (384-well format) consisted of two parts; a robotic system for incubation and sample clean up and an integrated LC/MS method to calculate the percent remaining of parent compound. Briefly, each reaction mixture (110 μL) consisted of a test compound (1 μM) and either human or mouse cytosol fractions (2 mg/mL) in phosphate buffer (100 mM) at pH 7.4. Samples were incubated in 384-well plates at 37 °C for 0, 5, 10, 15, 30 and 60 min. Sample analysis and t1/2 calculations were performed using a previously described method [15]. […] A set of control compounds for low and high cytosolic stability were routinely run in each plate.

| SMILES | half-life at 1 μM [h] |
| --- | --- |
| Cc1cc(=O)n(-c2ccccc2)n1C [Antipyrine, reference compound] | > 2 |

same assay, conditions: both, human, cytosol, pH 7.4, t1/2 category (Human cytosol), control compounds, 17 plates

| SMILES | half-life at 1 μM [h] |
| --- | --- |
| Cc1cc(=O)n(-c2ccccc2)n1C [Antipyrine, reference compound] | > 0.5 |

assay: Metabolic stability assay (substrate depletion) in mouse liver cytosol fractions; settings: external validation, sheet Mouse, left compound
Protocol: as §1

| SMILES | t1/2 [min] (Left) |
| --- | --- |
| CCN1c2cc(C(=O)Nc3ccc(Cl)cc3)ccc2C(=O)N2CCCCC21 (stereo not drawn) | 25.75 |
| CCN1c2cc(C(=O)Nc3ccc(Cl)cc3)ccc2C(=O)N2CCCCCC21 (stereo not drawn) | 56.1 |
| CCOc1cc(=O)n2c(c1C(=O)Nc1ccc(Cl)cc1)CCCC2 | 94.08 |
| CN1C(=O)CO[C@H]2CN(Cc3ccc(Cl)cc3)C[C@H]21 | 116.11 |
| CN1c2cc(C(=O)Nc3ccc(Cl)cc3)ccc2C(=O)N2CCCCC21 (stereo not drawn) | 83.39 |
| CN1c2cc(C(=O)Nc3ccc(Cl)cc3)ccc2C(=O)N2CCCCCC21 (stereo not drawn) | 63.37 |
| CN(C)c1nc2c(c(=O)[nH]1)CCN(Cc1ccc(Cl)cc1)CC2 | 114.48 |
| CN(Cc1cccnc1)c1nc2c(c(=O)[nH]1)CCN(Cc1ccc(Cl)cc1)CC2 | 74.11 |
| COc1ccc(CN2C[C@H]3CN(Cc4ccc(Cl)cc4)CCN3C2=O)cc1 | 82.24 |
| Cc1cccc(-c2noc([C@@H]3C[C@@H](O)CN3Cc3ccc(Cl)cc3)n2)c1 | 23.64 |
| FC(F)(F)c1ccc2nc([C@H]3CCN(Cc4ccc(Cl)cc4)C3)[nH]c2c1 | 56.67 |
| O=C1[C@H]2CN(Cc3ccc(Cl)cc3)C[C@H]2C(=O)N1CCc1ccccc1 | 47.51 |
| O=C1[C@H]2CN(Cc3ccc(Cl)cc3)C[C@H]2C(=O)N1Cc1ccc2c(c1)OCO2 | 66.66 |
| O=C(Nc1ccc(-c2nnc3n2CCCC3)cc1)c1ccc(Cl)cc1 | 117.12 |
| O=C(Nc1cccc(-c2nnc3n2CCCC3)c1)c1ccc(Cl)cc1 | 56.47 |
| Cc1noc(-c2nc(-c3ccc(Cl)cc3)no2)n1 [Cc1noc(-c2nc(-c3ccc(Cl)cc3)no2)n1] | 15.6 |
| OCC1(CN2CCCC2)CCN(Cc2ccc(Cl)cc2)CC1 [OCC1(CN2CCCC2)CCN(Cc2ccc(Cl)cc2)CC1] | 54.48 |

same assay, conditions: male, CD-1, mouse, cytosol, pH 7.4, t1/2 (mean ± SD) (Mouse cytosol), control compounds, 17 plates, 1 μM, 2 mg/mL cytosol, pH 7.4, 37 °C

| SMILES | half-life at 1 μM [h] |
| --- | --- |
| Cc1cc(=O)n(-c2ccccc2)n1C [Antipyrine, reference compound] | > 2 |

same assay, conditions: male, CD-1, mouse, cytosol, pH 7.4, t1/2 category (Mouse cytosol), control compounds, 17 plates

| SMILES | half-life at 1 μM [h] |
| --- | --- |
| Cc1cc(=O)n(-c2ccccc2)n1C [Antipyrine, reference compound] | > 0.5 |

same assay, conditions: male, CD-1, mouse, liver cytosol fractions, pH 7.4, t1/2 [min] (Right), external validation, sheet Mouse, right compound

| half-life at 1 μM [h] | SMILES |
| --- | --- |
| 0.412 | CCN1c2cc(C(=O)Nc3ccc(Cl)c(F)c3)ccc2C(=O)N2CCCCC21 (stereo not drawn) |
| 0.904 | CCN1c2cc(C(=O)Nc3ccc(Cl)c(F)c3)ccc2C(=O)N2CCCCCC21 (stereo not drawn) |
| 1.34 | CCOc1cc(=O)n2c(c1C(=O)Nc1ccc(Cl)c(F)c1)CCCC2 |
| > 2 | CN1CCN(c2nc3c(c(=O)[nH]2)CCN(Cc2ccc(Cl)c(F)c2)CC3)CC1 |
| 0.524 | CN1c2cc(C(=O)Nc3ccc(Cl)c(F)c3)ccc2C(=O)N2CCCCC21 (stereo not drawn) |
| 0.383 | CN1c2cc(C(=O)Nc3ccc(Cl)c(F)c3)ccc2C(=O)N2CCCCCC21 (stereo not drawn) |
| > 2 | CN(C)c1nc2c(c(=O)[nH]1)CCN(Cc1ccc(Cl)c(F)c1)CC2 |
| 1.36 | COCC1CN(C(C)=O)CC12CCN(Cc1ccc(Cl)c(F)c1)CC2 (stereo not drawn) |
| 1.47 | COc1cc(=O)n2c(c1C(=O)Nc1ccc(Cl)c(F)c1)CCCC2 |
| > 2 | COc1cccc(C(=O)NCC2CCCN(Cc3cc[nH]n3)C2)c1OC (stereo not drawn) |
| 1.43 | O=C1NC2(CCN(C(=O)c3ccc(Cl)c(F)c3)CC2)CC1c1ccccc1 (stereo not drawn) |
| 0.621 | O=C1[C@H]2CN(Cc3ccc(Cl)c(F)c3)C[C@H]2C(=O)N1CCc1ccccc1 |
| 0.921 | O=C1[C@H]2CN(Cc3ccc(Cl)c(F)c3)C[C@H]2C(=O)N1Cc1ccc2c(c1)OCO2 |
| 1.54 | O=c1[nH]c(N2CCOCC2)nc2c1CCN(Cc1ccc(Cl)c(F)c1)CC2 |
| > 2 | COCC1CN(Cc2ccc(Cl)c(F)c2)CC12CCNCC2 (stereo not drawn) [COCC1CN(Cc2ccc(Cl)c(F)c2)CC12CCNCC2] |
| > 2 | O=C1OCC2(CCN(Cc3cc[nH]n3)C2)N1CCN1CCOCC1 (stereo not drawn) [O=C1OCC2(CCN(Cc3cc[nH]n3)C2)N1CCN1CCOCC1] |
| > 2 | O=C(Nc1cccc(-c2nnc3n2CCCC3)c1)c1cc[nH]n1 [O=C(Nc1cccc(-c2nnc3n2CCCC3)c1)c1cc[nH]n1] |

| SMILES | half-life at 1 μM [h] |
| --- | --- |
| CN(C1CCOCC1)C1CCN(C(=O)c2cc[nH]n2)CC1 [CN(C1CCOCC1)C1CCN(C(=O)c2cc[nH]n2)CC1] | > 2 |
| O=C(Nc1ccc(-c2nnc3n2CCCC3)cc1)c1cc[nH]n1 [O=C(Nc1ccc(-c2nnc3n2CCCC3)cc1)c1cc[nH]n1] | > 2 |
| OCC1(CN2CCCC2)CCN(Cc2ccc(Cl)c(F)c2)CC1 [OCC1(CN2CCCC2)CCN(Cc2ccc(Cl)c(F)c2)CC1] | 1.21 |

Reference: article PMC7140498, “Predicting liver cytosol stability of small molecules” (Journal of Cheminformatics, 2020)
